Experimental data from patent US9175355B2, “Methods for determining the presence of antibodies blocking viral infection” (Monogram Biosciences, Inc., priority 2002, dated 2015).

How the values were obtained:
X4 tropic viruses = details: inhibitory concentration of drug; U87/CD4/CXCR4
Method: One cell line expresses CD4 plus CCR5 (U87/CD4/CCR5), also referred to as R5 cells in this application. The other cell line expresses CD4 and CXCR4 (U87/CD4/CXCR4) also referred to as X4 cells in this application. The virus entry assay is performed by infecting individual cell cultures with recombinant virus stocks derived from cells transfected with pHIVenv and pHIV luc or pHIVlucΔU3 vectors. pHIVenv vectors contain patient virus derived sequences and express HIV-1 envelope proteins (gp120SU, gp41TM). In this embodiment viruses are evaluated in using R5 and X4 target cells cultured in 96 well plates (FIG. 3A). Typically, R5 and X4 cells are plated one day prior to infection. […] Co-receptor tropism is assessed by comparing the amount of luciferase activity produced in each cell type, both in the presence and absence of drug. In this embodiment, the results of the assay are interpreted by comparing the ability of each virus to preferentially infect (produce luciferase activity) R5 cells or X4 cells, or both X4 and R5 cells if the virus is dual tropic. The ability of the CCR5 or CXCR4 inhibitor to specifically block infection (inhibit luciferase activity) is also evaluated (FIG. 3B).

[1] = system: HIV-1 (NL4-3, JRCSF) with mutations in the GIV motif of gp41; assay: Virus entry assay: T-20 susceptibility of site directed gp41 mutant viruses; format: cell-based; details: cells expressing CD4, CCR5 and CXCR4; luciferase; compared by IC50
Method: Susceptibility assays for HIV-1 entry inhibitors were performed using packaging host cells consisting of the human embryonic kidney cell line 293 (Cell Culture Facility, UC San Francisco, SF, CA) and target host cells consisting of a human osteosarcoma (HOS) cell line expressing CD4 (HT4) plus CCR5, and CXCR4, or astrocytoma (U-87) cell lines expressing either CD4 and CCR5 or CD4 and CXCR4.
Drug susceptibility testing was performed using pHIVenv and pHIVluc or pHIVlucΔU3. Pseudotyped HIV particles containing envelope proteins encoded by the patient derived segment were produced by transfecting a packaging host cell (HEK 293) with resistance test vector DNA. […] After infection (˜72 h) the target cells are lysed and luciferase activity is measured. […] The amount of luciferase activity detected in the infected cells is used as a direct measure of “infectivity” (FIGS. 1 and 2). […] Drug susceptibility is assessed by comparing the infectivity in the absence of drug to infectivity in the presence of drug. Relative drug susceptibility can be quantified by comparing the susceptibility of the “test” virus to the susceptibility of a well-characterized reference virus (wildtype) derived from a molecular clone of HIV-1, for example NL4-3 or HXB2. […]

Row | Compound | Infection of X4 cells by X4 tropic viruses (luciferase activity) (X4 tropic viruses) | T-20 susceptibility of viruses with one mutation in gp41 motif (DIV, GIM, SIV) vs wildtype virus (GIV) [1] | T-20 susceptibility of viruses with two mutations in GIV motif (DIM, SIM, DTV) vs viruses with one or no mutations [1]
1 | c1cc(CN2CCCNCCNCCCNCC2)ccc1CN1CCCNCCNCCCNCC1 [AMD3100] | blocked | – | –
2 | enfuvirtide | – | less susceptible | less susceptible
